Test results taken from patent publication US20100099770A1, “METHOD FOR TREATING DIABETIC PERIPHERAL NEUROPATHIC PAIN” (SCHWARZ PHARMA AG, priority 2001, published 2010).
Values joined by “and” are separate entries in the source; they are usually repeats but may differ in a detail not shown here. Equal values may be shown once. Marks after values point to notes of the source that are not given here.

Tests used:
[1] = test system: neuropathic pain (CHUNG), tactile stimulation; test: Neuropathic pain (CHUNG) test, tactile stimulation on lesioned paw; format: in vivo, rat; conditions: for FORCE INDUCING PAW-WITHDRAWAL, % change: compared with lesioned control; for FORCE INDUCING PAW-WITHDRAWAL, mean ± s.e.m.: lesioned paw
Source text: (§1) The following Tables 8 and 9 show the effects of harkoseride (hereinafter referred tows SPM 927), carbamazepine, levetiracetam, gabapentin and morphine in the neuropathic pain (CHUNG) test in the rat. Eight (8) rats per group were used.

[2] = test system: neuropathic pain (CHUNG), thermal stimulation; test: Neuropathic pain (CHUNG) test, thermal stimulation on lesioned paw; format: in vivo, rat
Source text: as §1

[3] = test system: formalin-induced nociception (paw licking); test: Subchronic inflammatory nociception in mice (formalin test); format: in vivo; conditions: for nociceptive threshold, early phase: 0-5 min after formalin (acute pain); for nociceptive threshold, late phase: 20-30 min after formalin (subchronic inflammatory pain)
Protocol: Subchronic inflammatory nocicpetion in mice was induced by the subplantar injection of formalin (0.02 ml of a 5% solution). Nociceptive behaviour (paw licking) was measured and quantified between 0 and 5 min (acute pain) and between 20 and 30 min (subchronic inflammatory pain) after formalin.
(§2) Drugs and experimental design: SPM 927 and GBP were suspended in 1% methylcellulose and administered i.p. at doses of 10 mg/kg, 20 mg/kg and 40 mg/kg. Pre-treatment time was 30 min before pain measurement. One group of animals served as controls and consequently received an injection of solvent (10 ml/kg) and another group of animals received a reference compound (Carrageenan test: 10 mg/kg indomethacin; Formalin test: 10 mg/kg morphine). Each compound was tested in a separate experiment and each experiment included a control and a reference group. 10 rats per group were used in the Carrageenan test and 6 mice per group in the formalin test.

[4] = test system: Carrageenan-induced mechanical hyperalgesia; test: Carrageenan-induced mechanical hyperalgesia, paw pressure (Randall-Sellito) test; format: in vivo, rats; conditions: for nociceptive threshold: inflamed paw, 3 h after carrageenan
Protocol: Carrageenan-induced mechanical hyperalgesia in rats was induced by subplantar injection of a 0.1 ml of a 2% carrageenan suspension and measured 3 h afterwards by the paw pressure (Randall-Sellito) test.
as §2

[5] = 16 mg/kg i.p. -30 min, compared with lesioned control
[6] = 16 mg/kg i.p. -30 min, lesioned paw
[7] = 32 mg/kg i.p. -30 min, compared with lesioned control
[8] = 32 mg/kg i.p. -30 min, lesioned paw
[9] = 64 mg/kg i.p. -30 min, compared with lesioned control
[10] = 64 mg/kg i.p. -30 min, lesioned paw
[11] = 10 mg/kg i.p. 30 min before measurement

| Compound | FORCE INDUCING PAW-WITHDRAWAL, % change ([1]; 16 mg/kg i.p. -30 min) | FORCE INDUCING PAW-WITHDRAWAL, mean ± s.e.m. ([1]; 16 mg/kg i.p. -30 min) | FORCE INDUCING PAW-WITHDRAWAL, % change ([1]; 32 mg/kg i.p. -30 min) | FORCE INDUCING PAW-WITHDRAWAL, mean ± s.e.m. ([1]; 32 mg/kg i.p. -30 min) | FORCE INDUCING PAW-WITHDRAWAL, % change ([1]; 64 mg/kg i.p. -30 min) | FORCE INDUCING PAW-WITHDRAWAL, mean ± s.e.m. ([1]; 64 mg/kg i.p. -30 min) | PAW-WITHDRAWAL LATENCY, % change [2, 5] | PAW-WITHDRAWAL LATENCY, mean ± s.e.m. [2, 6] | PAW-WITHDRAWAL LATENCY, % change [2, 7] | PAW-WITHDRAWAL LATENCY, mean ± s.e.m. [2, 8] | PAW-WITHDRAWAL LATENCY, % change [2, 9] | PAW-WITHDRAWAL LATENCY, mean ± s.e.m. [2, 10] | nociceptive threshold, early phase ([3]; 10 mg/kg i.p.) | nociceptive threshold [4, 11] | also measured |
| --- | --- | --- | --- | --- | --- | --- | --- | --- | --- | --- | --- | --- | --- | --- | --- |
| NC(=O)N1c2ccccc2C=Cc2ccccc21 [Carbamazepine, carbamazepine] | +21% (b) | 21.0 ± 2.3 NS (b) g | +121% (b) | 38.4 ± 8.1 (b) g | +125% (b) | 39.2 ± 9.1 (b) g | +118% (b) | 35.6 ± 4.1 (b) sec | +39% (b) | 22.7 ± 4.3 NS (b) sec | +77% (b) | 28.8 ± 6.9 NS (b) sec |  |  |  |
| NCC1(CC(=O)O)CCCCC1 [GBP, gabapentin] |  |  | −1% (b) | 17.2 ± 3.0 NS (b) g | +35% (b) | 23.5 ± 4.2 NS (b) g |  |  | +18% (b) | 19.3 ± 3.6 NS (b) sec | +75% (b) | 28.5 ± 5.4 NS (b) sec | 98 ± 20 s | 254 ± 39 | FORCE INDUCING PAW-WITHDRAWAL, % change ([1]; 128 mg/kg i.p. -30 min): +93% (b); FORCE INDUCING PAW-WITHDRAWAL, mean ± s.e.m. ([1]; 128 mg/kg i.p. -30 min): 33.6 ± 6.7 (b) g; PAW-WITHDRAWAL LATENCY, % change ([2]; 128 mg/kg i.p. -30 min, compared with lesioned control): +66% (b); PAW-WITHDRAWAL LATENCY, mean ± s.e.m. ([2]; 128 mg/kg i.p. -30 min, lesioned paw): 27.1 ± 5.2 NS (b) sec; nociceptive threshold, late phase ([3]; 10 mg/kg i.p.): 133 ± 30 s; nociceptive threshold, early phase ([3]; 20 mg/kg i.p.): 102 ± 17 s; nociceptive threshold, late phase ([3]; 20 mg/kg i.p.): 118 ± 13 s; nociceptive threshold, early phase ([3]; 40 mg/kg i.p.): 72 ± 10 s; nociceptive threshold, late phase ([3]; 40 mg/kg i.p.): 73 ± 13 s; effect on formalin-induced nociceptive response (in words) ([3]; 10, 20, 40 mg/kg i.p.): slightly but not significantly inhibited; nociceptive threshold ([4]; 20 mg/kg i.p. 30 min before measurement): 296 ± 31; nociceptive threshold ([4]; 40 mg/kg i.p. 30 min before measurement): 282 ± 33; effect on Carrageenan-induced mechanical hyperalgesia (in words) ([4]; 10, 20, 40 mg/kg i.p.): no significant effect |
| COc1ccc2c(c1)c(CC(=O)O)c(C)n2C(=O)c1ccc(Cl)cc1 [Indomethacin, indomethacin] |  |  |  |  |  |  |  |  |  |  |  |  |  | 370 ± 15^b and 384 ± 11^b |  |
| CC[C@@H](C(N)=O)N1CCCC1=O [Levetiracetam, levetiracetam] | +32% (b) | 23.0 ± 4.0 NS (b) g | +44% (b) | 25.0 ± 5.2 NS (b) g | +14% (b) | 19.8 ± 4.1 NS (b) g | +17% (b) | 19.0 ± 3.6 NS (b) sec | +5% (b) | 17.1 ± 2.9 NS (b) sec | +63% (b) | 26.6 ± 6.0 NS (b) sec |  |  |  |
| CN1CC[C@]23c4c5ccc(O)c4O[C@H]2[C@@H](O)C=C[C@H]3[C@H]1C5 [Morphine, morphine] | +164% (b) | 45.9 ± 8.8 (b) g |  |  |  |  |  |  |  |  |  |  | 8 ± 6^a s and 6 ± 3^a s |  | PAW-[…], % change [2, 5]: +160% (b); PAW-[…], mean ± s.e.m. [2, 6]: 42.4 ± 1.9 (b) sec |
